Results: patent publication US9115152B2, “Alkylated piperazine compounds” (Genentech, Inc., priority 2011, dated 2015)

test system: production of CD69 by B lymphocytes in human whole blood; assay: CD69 Whole Blood Assay (CD69 Hu Blood FACS); type: cell-based; conditions: Lymphocyte, stimulated with goat F(ab')2 anti-human IgM, 20 hours, CD69 positive of CD20 positive cells
From the text: A CD69 Whole Blood Assay can be conducted on Formula I compounds to determine the ability of compounds to inhibit the production of CD69 by B lymphocytes in human whole blood activated by crosslinking surface IgM with goat F(ab′)2 anti-human IgM (Example 907). CD69 is a type II C-type lectin involved in lymphocyte migration and cytokine secretion. CD69 expression represents one of the earliest available indicators of leukocyte activation and its rapid induction occurs through transcriptional activation (Vazquez et al (2009) Jour. of Immunology Published Oct. 19, 2009, doi:10.4049/jimmunol.0900839). Concentration-dependent inhibition of antigen receptor stimulation by selective Btk inhibitors induces cell surface expression of the lymphocyte activation marker CD69 (Honigberg et al (2010) Proc. Natl. Acad. Sci. 107(29):13075-13080). Thus, CD69 inhibition by selective Btk inhibitors may be correlated with therapeutic efficacy of certain B-cell disorders.
Human blood is obtained from healthy volunteers, with the following restrictions: 1 week drug-free, non-smokers. Blood (approximately 20 mls to test 8 compounds) is collected by venipuncture into Vacutainer® (Becton, Dickinson and Co.) tubes with sodium heparin.
Solutions of Formula I compounds at 10 mM in DMSO are diluted 1:10 in 100% DMSO, then are diluted by three-fold serial dilutions in 100% DMSO for a ten point dose-response curve. The compounds are further diluted 1:10 in PBS and then an aliquot of 5.5 μl of each compound is added in duplicate to a 2 ml 96-well plate; 5.5 μl of 10% DMSO in PBS is added as control and no-stimulus wells. Human whole blood—HWB (100 μl) is added to each well. After mixing the plates are incubated at 37° C., 5% CO2, 100% humidity for 30 minutes. Goat F(ab′)2 anti-human IgM (10 μl of a 500 μg/ml solution, 50 μg/ml final) is added to each well (except the no-stimulus wells) with mixing and the plates are incubated for an additional 20 hours. At the end of the 20 hour incubation, samples are incubated with fluorescent labeled antibodies for 30 minutes, at 37° C., 5% CO2, 100% humidity. Include induced control, unstained and single stains for compensation adjustments and initial voltage settings. Samples are then lysed with PharM Lyse™ (BD Biosciences Pharmingen) according to the manufacturer's instructions. Samples are then transferred to a 96 well plate suitable to be run on the BD Biosciences HTS 96 well system on the LSRII machine. Data acquired and Mean Fluorescence Intensity values were obtained using BD Biosciences DIVA Software. Results are initially analyzed by FACS analysis software (Flow Jo).

| SMILES | IC70 [µM] |
| --- | --- |
| C[C@H]1CN(C2COC2)CCN1c1ccc(Nc2cc(-c3cc(F)cc(N4CCc5c(cc6n5CCCC6)C4=O)c3CO)cn(C)c2=O)nc1 [Compound 101, (S)-2-(5-fluoro-2-(hydroxymethyl)-3-(1-methyl-5-(5-(2-methyl-4-(oxetan-3-yl)piperazin-1-yl)pyridin-2-ylamino)-6-oxo-1,6-dihydropyridin-3-yl)phenyl)-3,4,6,7,8,9-hexahydropyrido[3,4-b]indolizin-1(2H)-one] | 0.0338 |
| C[C@H]1CN(C2COC2)CCN1c1ccc(Nc2cc(-c3cc(F)cc(-n4ncc5c6c(sc5c4=O)CCCC6)c3CO)cn(C)c2=O)nc1 [Compound 102, (S)-5-[5-fluoro-2-(hydroxymethyl)-3(1-methyl-5-(5-(2-methyl-4-(oxetan-3-yl)piperazin-1-yl)pyridin-2-ylamino)-6-oxo-1,6-dihydropyridin-3-yl)phenyl]-8-thia-4,5-diazatricyclo[7.4.0.02,7]trideca-1(9),2(7),3-trien-6-one] | 0.031 |
| C[C@H]1CN(C2COC2)CCN1c1ccc(Nc2cc(-c3cc(F)cc(N4CCn5c(cc6c5CC(C)(C)C6)C4=O)c3CO)cn(C)c2=O)nc1 [Compound 103, (2S)-10-[5-fluoro-2-(hydroxymethyl)-3-[1-methyl-5-({5-[2-methyl-4-(oxetan-3-yl)piperazin-1-yl]pyridine-2-yl}amino)-6-oxo-1,6-dihydropyridin-3-yl]phenyl]-4,4-dimethyl-1,10-diazatricyclo[6.4.0.02,6]dodeca-2(6),7-dien-9-one] | 0.0145 |
| C[C@@H]1CN(c2ccc(Nc3cc(-c4cc(F)cc(N5CCn6c(cc7c6CCCC7)C5=O)c4CO)cn(C)c3=O)nc2)[C@@H](C)CN1C1COC1 [Compound 104, 2-(3-(5-(5-((2S,5R)-2,5-dimethyl-4-(oxetan-3-yl)piperazin-1-yl)pyridin-2-ylamino)-1-methyl-6-oxo-1,6-dihydropyridin-3-yl)-5-fluoro-2-(hydroxymethyl)phenyl)-3,4,6,7,8,9-hexahydropyrazino[1,2-a]indol-1(2H)-one] | 0.015 |
| CC[C@H]1CN(C2COC2)CCN1c1ccc(Nc2cc(-c3cc(F)cc(N4CCn5c(cc6c5CCCC6)C4=O)c3CO)cn(C)c2=O)nc1 [Compound 105] | 0.008 |
| C[C@H]1CN(C2COC2)CCN1c1ccc(Nc2cc(-c3cc(F)cc(N4CCn5c(cc6c5CCCC6)C4=O)c3CO)cn(C)c2=O)nc1 [Compound 106, (S)-2-(5-fluoro-2-(hydroxymethyl)-3-(1-methyl-5-(5-(2-methyl-4-(oxetan-3-yl)piperazin-1-yl)pyridin-2-ylamino)-6-oxo-1,6-dihydropyridin-3-yl)phenyl)-3,4,6,7,8,9-hexahydropyrazino[1,2-a]indol-1(2H)-one] | 0.019 |
| C[C@H]1CN(c2ccc(Nc3cc(-c4cc(F)cc(N5CCn6c(cc7c6CCCC7)C5=O)c4CO)cn(C)c3=O)nc2)CCN1C [Compound 107, (S)-2-(3-(5-(5-(3,4-dimethylpiperazin-1-yl)pyridin-2-ylamino)-1-methyl-6-oxo-1,6-dihydropyridin-3-yl)-5-fluoro-2-(hydroxymethyl)phenyl)-3,4,6,7,8,9-hexahydropyrazino[1,2-a]indol-1(2H)-one] | 0.044 |
| C[C@@H]1CN(c2ccc(Nc3cc(-c4cc(F)cc(N5CCn6c(cc7c6CCCC7)C5=O)c4CO)cn(C)c3=O)nc2)CCN1C [Compound 108, (R)-2-(3-(5-(5-(3,4-dimethylpiperazin-1-yl)pyridin-2-ylamino)-1-methyl-6-oxo-1,6-dihydropyridin-3-yl)-5-fluoro-2-(hydroxymethyl)phenyl)-3,4,6,7,8,9-hexahydropyrazino[1,2-a]indol-1(2H)-one] | 0.023 |
| C[C@@H]1CN(C)CCN1c1ccc(Nc2cc(-c3cc(F)cc(N4CCn5c(cc6c5CCCC6)C4=O)c3CO)cn(C)c2=O)nc1 [Compound 109, (R)-2-(3-(5-(5-(2,4-dimethylpiperazin-1-yl)pyridin-2-ylamino)-1-methyl-6-oxo-1,6-dihydropyridin-3-yl)-5-fluoro-2-(hydroxymethyl)phenyl)-3,4,6,7,8,9-hexahydropyrazino[1,2-a]indol-1(2H)-one] | 0.029 |
| C[C@H]1CN(C)CCN1c1ccc(Nc2cc(-c3cc(F)cc(N4CCn5c(cc6c5CCCC6)C4=O)c3CO)cn(C)c2=O)nc1 [Compound 110, (S)-2-(3-(5-(5-(2,4-dimethylpiperazin-1-yl)pyridin-2-ylamino)-1-methyl-6-oxo-1,6-dihydropyridin-3-yl)-5-fluoro-2-(hydroxymethyl)phenyl)-3,4,6,7,8,9-hexahydropyrazino[1,2-a]indol-1(2H)-one] | 0.006 |
| CN1CCN(c2ccc(Nc3cc(-c4cc(F)cc(N5CCn6c(cc7c6CCCC7)C5=O)c4CO)cn(C)c3=O)nc2)CC1CF (stereo not drawn) [Compound 111, 2-(5-fluoro-3-(5-(5-(3-(fluoromethyl)-4-methylpiperazin-1-yl)pyridin-2-ylamino)-1-methyl-6-oxo-1,6-dihydropyridin-3-yl)-2-(hydroxymethyl)phenyl)-3,4,6,7,8,9-hexahydropyrazino[1,2-a]indol-1(2H)-one] | 0.092 |
| CN1C2COCC1CN(c1ccc(Nc3cc(-c4cc(F)cc(N5CCn6c(cc7c6CCCC7)C5=O)c4CO)cn(C)c3=O)nc1)C2 [Compound 112, 2-(5-fluoro-2-(hydroxymethyl)-3-(1-methyl-5-(5-(9-methyl-7-oxa-3,9-diaza-bicyclo[3.3.1]nonan-3-yl)pyridin-2-ylamino)-6-oxo-1,6-dihydropyridin-3-yl)phenyl)-3,4,6,7,8,9-hexahydropyrazino[1,2-a]indol-1(2H)-one] | 0.17 |

same assay, conditions: stimulated with goat F(ab')2 anti-human IgM, 20 hours, CD69 positive of CD20 positive cells, Table 2, unit inferred

| SMILES | CD69 Hu Blood FACS (IC70) [µM] |
| --- | --- |
| C[C@@H]1CN(c2ccc(Nc3cc(-c4cc(F)cc(N5CCc6c(cc7n6CCCC7)C5=O)c4CO)cn(C)c3=O)nc2)[C@@H](C)CN1C1COC1 [Compound 126, 2-[3-[5-[[5-[(2S,5R)-2,5-dimethyl-4-(oxetan-3-yl)piperazin-1-yl]-2-pyridyl]amino]-1-methyl-6-oxo-3-pyridyl]-5-fluoro-2-(hydroxymethyl)phenyl]-3,4,6,7,8,9-hexahydropyrido[3,4-b]indolizin-1-one] | 0.0571 |
| C[C@H]1CN(C2COC2)CCN1c1ccc(Nc2cc(-c3cc(F)cc(-n4ncc5c(cc6n5CCCC6)c4=O)c3CO)cn(C)c2=O)nc1 [Compound 127, 2-[5-fluoro-2-(hydroxymethyl)-3-[1-methyl-5-[[5-[(2S)-2-methyl-4-(oxetan-3-yl)piperazin-1-yl]-2-pyridyl]amino]-6-oxo-3-pyridyl]phenyl]-6,7,8,9-tetrahydropyridazino[4,5-b]indolizin-1-one] | 0.051 |
| C[C@H]1CN(C2COC2)CCN1c1ccc(Nc2cc(-c3cc(F)cc(N4CCn5c(cc6c5CC(C)(C)C6)C4=O)c3C(=O)O)cn(C)c2=O)nc1 [Compound 128, 2-(7,7-dimethyl-4-oxo-1,2,6,8-tetrahydrocyclopenta[3,4]pyrrolo[3,5-b]pyrazin-3-yl)-4-fluoro-6-[1-methyl-5-[[5-[(2S)-2-methyl-4-(oxetan-3-yl)piperazin-1-yl]-2-pyridyl]amino]-6-oxo-3-pyridyl]benzoic acid] | 5 |
| CNC(=O)c1c(-c2cc(Nc3ccc(N4CCN(C5COC5)C[C@@H]4C)cn3)c(=O)n(C)c2)cc(F)cc1N1CCn2c(cc3c2CC(C)(C)C3)C1=O [Compound 129, 2-(7,7-dimethyl-4-oxo-1,2,6,8-tetrahydrocyclopenta[3,4]pyrrolo[3,5-b]pyrazin-3-yl)-4-fluoro-N-methyl-6-[1-methyl-5-[[5-[(2S)-2-methyl-4-(oxetan-3-yl)piperazin-1-yl]-2-pyridyl]amino]-6-oxo-3-pyridyl]benzamide] | 0.472 |
| C[C@H]1CN(C2COC2)CCN1c1ccc(Nc2cc(-c3cccc(-n4ncc5c6c(sc5c4=O)CCCC6)c3CO)cn(C)c2=O)nc1 [Compound 130, 3-[2-(hydroxymethyl)-3-[1-methyl-5-[[5-[(2S)-2-methyl-4-(oxetan-3-yl)piperazin-1-yl]-2-pyridyl]amino]-6-oxo-3-pyridyl]phenyl]-6,7,8,9-tetrahydrobenzothiopheno[2,3-d]pyridazin-4-one] | 0.0354 |
| C[C@H]1CN(C2COC2)CCN1c1ccc(Nc2cc(-c3cc(F)cc(-n4ncc5c6c(sc5c4=O)CC(C)(C)C6)c3CO)cn(C)c2=O)nc1 [Compound 131, 3-[5-fluoro-2-(hydroxymethyl)-3-[1-methyl-5-[[5-[(2S)-2-methyl-4-(oxetan-3-yl)piperazin-1-yl]-2-pyridyl]amino]-6-oxo-3-pyridyl]phenyl]-7,7-dimethyl-6,8-dihydrocyclopenta[3,4]thieno[1,3-d]pyridazin-4-one] | 0.0349 |
